According to PMC10807440, “Engineering Novosphingobium aromaticivorans to produce cis,cis-muconic acid from biomass aromatics” (Applied and Environmental Microbiology, 2023):

Key:
[1] = molecular target: T1, NadCD (Novosphingobium aromaticivorans, UniProt A4XDW1); assay: PCA to catechol conversion by LCMS; format: biochemical; conditions: 1 mM PCA, 0.1 µM enzyme, crude prFMN-containing E. coli lysate needed, 50 mM HEPES, 150 mM NaCl pH 7.5, room temperature (18 h endpoint assay)
T1 construct: gene Saro_3877; Saro_3877-78 cloned together in pVP302K (8x His tag), expressed in E. coli B834 pRARE2, Ni-NTA purified; with protocatechuate decarboxylase subunit D (4-hydroxybenzoate decarboxylase subunit D-like)
T1 sequence (A4XDW1 1-486): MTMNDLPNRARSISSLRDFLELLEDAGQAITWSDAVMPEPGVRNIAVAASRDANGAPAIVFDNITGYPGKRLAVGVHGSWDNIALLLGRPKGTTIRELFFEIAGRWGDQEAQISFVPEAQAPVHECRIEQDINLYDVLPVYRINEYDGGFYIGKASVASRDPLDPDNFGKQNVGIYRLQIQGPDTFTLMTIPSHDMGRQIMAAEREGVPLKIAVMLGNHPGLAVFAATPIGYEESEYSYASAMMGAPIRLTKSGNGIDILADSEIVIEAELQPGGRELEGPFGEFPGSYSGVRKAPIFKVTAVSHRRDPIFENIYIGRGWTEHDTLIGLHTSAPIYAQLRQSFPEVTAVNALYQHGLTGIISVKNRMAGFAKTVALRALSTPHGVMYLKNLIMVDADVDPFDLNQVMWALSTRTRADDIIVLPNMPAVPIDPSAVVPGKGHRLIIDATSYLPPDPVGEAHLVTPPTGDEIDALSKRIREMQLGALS
T1 sequence (A4XDW2 1-74 partner): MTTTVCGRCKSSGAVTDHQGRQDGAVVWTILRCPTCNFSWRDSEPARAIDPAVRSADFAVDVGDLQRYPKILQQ

[2] = molecular target: T2, NaCatA (Novosphingobium aromaticivorans, UniProt A4XFH8); assay: ccMA formation by absorbance at […] nm; format: biochemical; conditions: 100 µM catechol, 0.5 µM enzyme, 50 mM HEPES, 150 mM NaCl pH 7.5, 28°C; O2 co-substrate
T2 construct: gene Saro_3830; pVP302K (8x His tag), expressed in E. coli B834 pRARE2 with Fe(II)SO4, Ni-NTA purified
T2 sequence (A4XFH8 1-298): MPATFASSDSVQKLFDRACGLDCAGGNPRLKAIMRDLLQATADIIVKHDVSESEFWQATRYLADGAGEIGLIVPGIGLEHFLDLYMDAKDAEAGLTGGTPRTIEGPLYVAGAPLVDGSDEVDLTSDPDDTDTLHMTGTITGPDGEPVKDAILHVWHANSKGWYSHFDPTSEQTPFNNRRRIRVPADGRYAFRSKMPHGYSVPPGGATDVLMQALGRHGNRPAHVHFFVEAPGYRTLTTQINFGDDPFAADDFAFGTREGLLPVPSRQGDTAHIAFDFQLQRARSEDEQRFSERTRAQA

Row | Compound | PCA to catechol conversion by LCMS [1] | ccMA formation by absorbance at 260 nm [2]
1 | O=C(O)c1ccc(O)c(O)c1 [PCA] | NadCD was mixed with PCA and with the crude E. coli lysate that contained prFMN | –
2 | Oc1ccccc1O [catechol] | – | NaCatA catalyzes the intradiol cleavage of catechol to produce ccMA in vitro
